According to patent US20240317777A1, “NOVEL MACROCYCLIC AMINOPYRAZOLE COMPOUNDS AS CDK2 INHIBITORS” (Accutar Biotechnology Inc., priority 2023, published 2024):
pIC50: −log10 of the molar value. Like-named read-outs stand apart in the source and are kept apart here. Values belong to the compound of their own block, whether it stands above or below them.

Experiments:
CDK1-CYCLIN B = CDK1-CYCLIN B (Homo sapiens, UniProt P06493); experiment: CDK protein kinase inhibition by ADP-Glo assay, CDK1-CYCLIN B; type: biochemical; details: for pIC50: ADP-Glo, 1000 μM ATP, read-out: CDK1-CYCLINB, IC50
CDK1-CYCLIN B, sequence (P06493 whole entry): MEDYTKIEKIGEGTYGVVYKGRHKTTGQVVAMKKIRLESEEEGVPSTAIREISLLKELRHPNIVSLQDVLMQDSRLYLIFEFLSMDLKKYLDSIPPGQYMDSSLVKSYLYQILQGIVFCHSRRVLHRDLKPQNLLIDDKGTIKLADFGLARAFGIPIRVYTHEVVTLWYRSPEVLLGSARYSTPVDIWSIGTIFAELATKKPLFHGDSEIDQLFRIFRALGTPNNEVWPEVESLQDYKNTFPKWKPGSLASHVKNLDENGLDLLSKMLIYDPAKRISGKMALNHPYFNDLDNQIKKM
CDK1-CYCLIN B, sequence (P14635 whole entry partner): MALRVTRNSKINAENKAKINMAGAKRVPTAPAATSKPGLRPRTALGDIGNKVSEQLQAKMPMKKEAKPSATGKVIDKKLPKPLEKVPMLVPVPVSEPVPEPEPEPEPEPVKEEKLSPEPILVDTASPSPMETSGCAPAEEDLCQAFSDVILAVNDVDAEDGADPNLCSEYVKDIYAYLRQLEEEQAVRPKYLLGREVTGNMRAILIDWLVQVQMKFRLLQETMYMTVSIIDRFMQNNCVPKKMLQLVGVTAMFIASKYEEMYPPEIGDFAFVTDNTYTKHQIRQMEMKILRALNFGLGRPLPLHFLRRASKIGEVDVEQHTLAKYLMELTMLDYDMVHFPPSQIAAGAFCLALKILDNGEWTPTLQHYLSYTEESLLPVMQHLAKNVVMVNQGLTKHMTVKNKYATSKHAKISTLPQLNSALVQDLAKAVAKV
Procedure, shortened: (§1)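 Luminescent ADP-Glo readout quantified ADP produced as peptide phosphorylation by each kinase/cyclin pair. Reactions ran at 22° C in HEPES pH 7.5 buffer (DTT, BSA, Triton X-100, orthovanadate, β-glycerophosphate, 5 mM Mg2+) with ATP at 1000 μM and 1% DMSO.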

CDK2-CYCLIN E1 = CDK2-CYCLIN E1 (Homo sapiens, UniProt P24941); experiment: CDK protein kinase inhibition by ADP-Glo assay, CDK2-CYCLIN E1; type: biochemical; details: ADP-Glo, 1000 μM ATP, read-out: CDK2-CYCLINE, IC50
Procedure, shortened: as §1

CDK4-CYCLIN D1 = CDK4-CYCLIN D1 (Homo sapiens, UniProt P11802); experiment: CDK protein kinase inhibition by ADP-Glo assay, CDK4-CYCLIN D1; type: biochemical; details: for pIC50: ADP-Glo, 1000 μM ATP, read-out: CDK4-CYCLIND1, IC50
CDK4-CYCLIN D1, sequence (P11802 whole entry): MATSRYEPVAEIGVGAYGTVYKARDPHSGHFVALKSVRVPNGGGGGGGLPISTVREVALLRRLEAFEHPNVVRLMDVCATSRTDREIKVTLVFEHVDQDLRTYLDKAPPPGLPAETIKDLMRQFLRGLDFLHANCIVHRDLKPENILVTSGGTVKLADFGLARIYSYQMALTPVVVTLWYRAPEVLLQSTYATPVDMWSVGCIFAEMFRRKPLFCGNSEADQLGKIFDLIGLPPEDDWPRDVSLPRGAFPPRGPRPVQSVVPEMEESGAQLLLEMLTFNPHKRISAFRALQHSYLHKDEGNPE
CDK4-CYCLIN D1, sequence (P24385 whole entry partner): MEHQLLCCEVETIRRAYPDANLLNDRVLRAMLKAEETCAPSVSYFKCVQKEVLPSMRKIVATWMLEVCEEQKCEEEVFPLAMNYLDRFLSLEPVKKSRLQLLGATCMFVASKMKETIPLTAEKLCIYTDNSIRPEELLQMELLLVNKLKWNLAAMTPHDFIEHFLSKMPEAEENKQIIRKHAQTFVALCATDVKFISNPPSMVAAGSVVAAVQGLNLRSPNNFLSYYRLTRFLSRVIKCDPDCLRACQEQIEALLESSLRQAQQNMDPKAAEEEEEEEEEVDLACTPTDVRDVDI
Procedure, shortened: as §1

CDK6-CYCLIN D3 = CDK6-CYCLIN D3 (Homo sapiens, UniProt Q00534); experiment: CDK protein kinase inhibition by ADP-Glo assay, CDK6-CYCLIN D3; type: biochemical; details: for pIC50: ADP-Glo, 1000 μM ATP, read-out: CDK6-CYCLIND3, IC50
CDK6-CYCLIN D3, sequence (Q00534 whole entry): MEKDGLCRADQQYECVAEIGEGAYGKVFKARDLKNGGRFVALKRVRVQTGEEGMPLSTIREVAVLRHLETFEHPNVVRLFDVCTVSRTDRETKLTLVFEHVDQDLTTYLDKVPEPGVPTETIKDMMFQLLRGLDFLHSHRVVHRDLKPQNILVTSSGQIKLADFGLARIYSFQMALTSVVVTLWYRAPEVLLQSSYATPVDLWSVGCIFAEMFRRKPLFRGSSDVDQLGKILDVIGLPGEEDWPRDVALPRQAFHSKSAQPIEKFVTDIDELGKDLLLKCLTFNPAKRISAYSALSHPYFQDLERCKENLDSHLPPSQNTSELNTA
CDK6-CYCLIN D3, sequence (P30281 whole entry partner): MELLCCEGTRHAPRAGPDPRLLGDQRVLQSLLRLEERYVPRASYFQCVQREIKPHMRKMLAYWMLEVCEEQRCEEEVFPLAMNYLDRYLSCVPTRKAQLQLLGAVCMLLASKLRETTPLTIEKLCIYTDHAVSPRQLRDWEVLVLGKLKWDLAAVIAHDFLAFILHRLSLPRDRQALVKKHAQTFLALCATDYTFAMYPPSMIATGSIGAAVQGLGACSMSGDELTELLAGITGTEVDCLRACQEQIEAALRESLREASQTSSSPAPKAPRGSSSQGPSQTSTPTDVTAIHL
Procedure, shortened: as §1

CDK9-CYCLIN T1 = CDK9-CYCLIN T1 (Homo sapiens, UniProt P50750); experiment: CDK protein kinase inhibition by ADP-Glo assay, CDK9-CYCLIN T1; type: biochemical; details: for pIC50: ADP-Glo, 1000 μM ATP
CDK9-CYCLIN T1, sequence (P50750 whole entry): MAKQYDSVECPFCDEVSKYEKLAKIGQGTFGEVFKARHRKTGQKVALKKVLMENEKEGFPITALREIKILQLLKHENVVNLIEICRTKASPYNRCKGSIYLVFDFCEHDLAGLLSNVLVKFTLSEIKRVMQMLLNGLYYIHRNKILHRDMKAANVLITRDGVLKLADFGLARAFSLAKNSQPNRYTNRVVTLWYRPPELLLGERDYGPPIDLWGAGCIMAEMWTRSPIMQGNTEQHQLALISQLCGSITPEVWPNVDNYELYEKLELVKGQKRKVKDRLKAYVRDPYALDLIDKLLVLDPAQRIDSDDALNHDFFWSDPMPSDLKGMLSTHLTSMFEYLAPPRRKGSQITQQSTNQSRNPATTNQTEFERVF
CDK9-CYCLIN T1, sequence (O60563 whole entry partner): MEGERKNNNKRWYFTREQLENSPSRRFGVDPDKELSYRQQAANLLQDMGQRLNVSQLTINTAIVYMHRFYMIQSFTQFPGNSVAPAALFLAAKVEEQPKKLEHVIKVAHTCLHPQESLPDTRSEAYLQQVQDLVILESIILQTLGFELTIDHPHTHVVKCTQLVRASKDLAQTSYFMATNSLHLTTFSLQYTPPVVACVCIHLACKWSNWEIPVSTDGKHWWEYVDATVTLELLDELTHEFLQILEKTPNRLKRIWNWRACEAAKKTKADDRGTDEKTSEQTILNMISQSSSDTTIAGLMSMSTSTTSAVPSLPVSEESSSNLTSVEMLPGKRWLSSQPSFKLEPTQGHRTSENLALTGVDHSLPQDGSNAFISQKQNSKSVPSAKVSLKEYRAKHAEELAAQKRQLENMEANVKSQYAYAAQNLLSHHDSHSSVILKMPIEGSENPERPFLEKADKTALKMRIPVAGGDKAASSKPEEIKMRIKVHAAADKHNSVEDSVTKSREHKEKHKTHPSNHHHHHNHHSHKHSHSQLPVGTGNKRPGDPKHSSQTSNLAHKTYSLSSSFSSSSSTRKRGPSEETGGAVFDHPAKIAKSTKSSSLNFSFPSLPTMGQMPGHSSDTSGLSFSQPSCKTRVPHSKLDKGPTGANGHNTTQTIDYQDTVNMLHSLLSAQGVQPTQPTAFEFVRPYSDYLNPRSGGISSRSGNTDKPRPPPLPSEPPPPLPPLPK
Procedure, shortened: as §1

[1] = system: Phospho-Rb (Ser807/811) in OVCAR3 cells; experiment: Phospho-Rb expression inhibition in OVCAR3 cells quantified by In Cell Western; type: cell-based; details: Homo sapiens, OVCAR-3, 24 hours, read-out: OVCAR-3 pRb IC50
Procedure, shortened: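 In-cell western: after 24 h compound exposure at 37° C, fixed OVCAR3 cells co-stained for pRb Ser807/811 (800 nm channel) and total Rb (680 nm channel), imaged by LI-COR Odyssey.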

[2] = system: CCNE1-amplified OVCAR3 cells; experiment: Cell growth inhibition of CCNE1-amplified OVCAR3 cells (CellTiter-Glo); type: cell-based; details: Homo sapiens, OVCAR-3, 144 h, 6 days
Procedure, shortened: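 Growth read-out was CellTiter-Glo luminescence, taken after 10 min at room temperature at the end of a 6-day compound exposure at 37 °C. Compounds were diluted from DMSO stocks across various concentrations.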

CCNE1-normal SKOV3 cells = experiment: Cell growth inhibition of CCNE1-normal SKOV3 cells (CellTiter-Glo); type: cell-based; details: Homo sapiens, SK-OV-3, 144 h, 6 days
Procedure, shortened: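 Growth was measured by CellTiter-Glo luminescence after 6 days' compound exposure at 37 °C. Cells were plated one day before dosing at 1000 per well in medium with 10% FBS, and compounds were diluted from DMSO stocks.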

[3] = Table 11, read-out: CDK9-CYCLINT1, IC50
[4] = Table 7, read-out: CDK9-CYCLINT1, IC50

pIC50 (CDK1-CYCLIN B; Table 27): 6.30 to 7.00
CDK2 Fold selectivity, CDK1 (CDK1-CYCLIN B; CDK2 versus CDK1, Table 28): E (E, <20)
pIC50 (CDK2-CYCLIN E1; Table 27): 7.30 to 8.00
pIC50 (CDK4-CYCLIN D1; Table 27): 6.30 to 7.00
CDK2 Fold selectivity, CDK4 (CDK4-CYCLIN D1; CDK2 versus CDK4, Table 28): D (D, >20 and ≤50)
pIC50 (CDK6-CYCLIN D3; Table 27): < 6.30
CDK2 Fold selectivity, CDK6 (CDK6-CYCLIN D3; CDK2 versus CDK6, Table 28): D (D, >20 and ≤50)
pIC50 (CDK9-CYCLIN T1; Table 27, read-out: CDK9-CYCLINT1 IC50): < 6.30
CDK2 Fold selectivity, CDK9 (CDK9-CYCLIN T1; CDK2 versus CDK9, Table 28): D (D, >20 and ≤50)
pIC50 [1]: 7.30 to 8.00
pIC50 [2]: 6.60 to 7.30
SMILES: [2H]C1([2H])CC[C@H](C)NC(=O)O[C@@H]2CC[C@@H](C2)c2cc([nH]n2)Nc2ccnc(c2)O1 [Compound 173, (1^1S,1^3R,9S,Z)-9-methyl-2^1H-5,12-dioxa-3,10-diaza-4(4,2)-pyridina-2(3,5)-pyrazola-1(1,3)-cyclopentanacyclododecaphan-11-one-6,6-d2]
pIC50 (CCNE1-normal SKOV3 cells): < 5.90

pIC50 (CDK1-CYCLIN B; Table 11): ≥ 8.00
CDK2 Fold selectivity, CDK1 (CDK1-CYCLIN B; CDK2 versus CDK1, Table 12): E (E, <20)
pIC50 (CDK2-CYCLIN E1; Table 11): ≥ 8.00
pIC50 (CDK4-CYCLIN D1; Table 11): 7.30 to 8.00
CDK2 Fold selectivity, CDK4 (CDK4-CYCLIN D1; CDK2 versus CDK4, Table 12): E (E, <20)
pIC50 (CDK6-CYCLIN D3; Table 11): 7.30 to 8.00
CDK2 Fold selectivity, CDK6 (CDK6-CYCLIN D3; CDK2 versus CDK6, Table 12): E (E, <20)
pIC50 (CDK9-CYCLIN T1; [3]): 7.30 to 8.00
CDK2 Fold selectivity, CDK9 (CDK9-CYCLIN T1; CDK2 versus CDK9, Table 12): D (D, >20 and ≤50)
pIC50 [1]: ≥ 8.70
pIC50 [2]: ≥ 8.70
SMILES: O=C1NC23CC(CCOc4cncc(c4)Nc4cc(n[nH]4)[C@H]4CC[C@H](C4)O1)(C2)C3 [Compound 117, (1^1S,1^3R,Z)-2^1H-5,11-dioxa-3,9-diaza-4(3,5)-pyridina-2(3,5)-pyrazola-8(1,3)-bicyclo[1.1.1]pentana-1(1,3)-cyclopentanacycloundecaphan-10-one]
pIC50 (CCNE1-normal SKOV3 cells): 6.60 to 7.30

pIC50 (CDK1-CYCLIN B; Table 25): 7.30 to 8.00
CDK2 Fold selectivity, CDK1 (CDK1-CYCLIN B; CDK2 versus CDK1, Table 26): E (E, <20)
pIC50 (CDK2-CYCLIN E1; Table 25): ≥ 8.00
pIC50 (CDK4-CYCLIN D1; Table 25): 6.30 to 7.00
CDK2 Fold selectivity, CDK4 (CDK4-CYCLIN D1; CDK2 versus CDK4, Table 26): D (D, >20 and ≤50)
pIC50 (CDK6-CYCLIN D3; Table 25): 6.30 to 7.00
CDK2 Fold selectivity, CDK6 (CDK6-CYCLIN D3; CDK2 versus CDK6, Table 26): D (D, >20 and ≤50)
pIC50 (CDK9-CYCLIN T1; Table 25, read-out: CDK9-CYCLINT1, IC50): < 6.30
CDK2 Fold selectivity, CDK9 (CDK9-CYCLIN T1; CDK2 versus CDK9, Table 26): B (B, >100 and ≤500)
pIC50 [1]: 7.30 to 8.00
pIC50 [2]: 6.60 to 7.30
SMILES: C[C@H]1CCCNC(=O)O[C@@H]2CC[C@@H](C2)c2cc([nH]n2)Nc2cnnc(c2)O1 [Compound 155, (1^1S,1^3R,6S,Z)-6-methyl-2^1H-5,12-dioxa-3,10-diaza-4(5,3)-pyridazina-2(3,5)-pyrazola-1(1,3)-cyclopentanacyclododecaphan-11-one]
pIC50 (CCNE1-normal SKOV3 cells): < 5.90

pIC50 (CDK1-CYCLIN B; Table 21): 7.30 to 8.00
CDK2 Fold selectivity, CDK1 (CDK1-CYCLIN B; CDK2 versus CDK1, Table 22): E (E, <20)
pIC50 (CDK2-CYCLIN E1; Table 21): ≥ 8.00
pIC50 (CDK4-CYCLIN D1; Table 21): 7.00 to 7.30
CDK2 Fold selectivity, CDK4 (CDK4-CYCLIN D1; CDK2 versus CDK4, Table 22): E (E, <20)
pIC50 (CDK6-CYCLIN D3; Table 21): 7.00 to 7.30
CDK2 Fold selectivity, CDK6 (CDK6-CYCLIN D3; CDK2 versus CDK6, Table 22): D (D, >20 and ≤50)
pIC50 (CDK9-CYCLIN T1; Table 21, read-out: CDK9-CYCLINT1, IC50): 6.30 to 7.00
CDK2 Fold selectivity, CDK9 (CDK9-CYCLIN T1; CDK2 versus CDK9, Table 22): D (D, >20 and ≤50)
pIC50 [1]: ≥ 8.70
pIC50 [2]: 8.00 to 8.70
SMILES: C[C@H]1Oc2cncc(c2)Nc2cc(n[nH]2)[C@H]2CC[C@H](C2)OC(=O)N[C@H]2C[C@H]1C2 [Compound 148, (1^1S,1^3R,7^1R,7^3R,6R,Z)-6-methyl-2^1H-5,10-dioxa-3,8-diaza-4(3,5)-pyridina-2(3,5)-pyrazola-1(1,3)-cyclopentana-7(1,3)-cyclobutanacyclodecaphan-9-one]
pIC50 (CCNE1-normal SKOV3 cells): 5.90 to 6.60

pIC50 (CDK1-CYCLIN B; Table 31): ≥ 8.00
pIC50 (CDK2-CYCLIN E1; Table 31): ≥ 8.00
pIC50 (CDK4-CYCLIN D1; Table 31): ≥ 8.00
pIC50 (CDK6-CYCLIN D3; Table 31): 7.30 to 8.00
pIC50 (CDK9-CYCLIN T1; Table 31, read-out: CDK9-CYCLINT1, IC50): ≥ 8.00
pIC50 [1]: ≥ 8.70
pIC50 [2]: ≥ 8.70
SMILES: C[C@@H]1NC(=O)O[C@@H]2CC[C@@H](C2)c2cc([nH]n2)Nc2ccnc(c2)COCC1(F)F [compound 164]
pIC50 (CCNE1-normal SKOV3 cells): 7.30 to 8.00

pIC50 (CDK1-CYCLIN B; Table 9): 7.30 to 8.00
pIC50 (CDK2-CYCLIN E1; Table 9): ≥ 8.00
pIC50 (CDK4-CYCLIN D1; Table 9): 7.00 to 7.30
pIC50 (CDK6-CYCLIN D3; Table 9): 6.30 to 7.00
pIC50 (CDK9-CYCLIN T1; Table 9, read-out: CDK9-CYCLINT1, IC50): 6.30 to 7.00
pIC50 [1]: 8.00 to 8.70
pIC50 [2]: 7.30 to 8.00
SMILES: C[C@@H]1CCC2(CC2)NC(=O)O[C@@H]2CC[C@@H](C2)c2cc([nH]n2)Nc2ccnc(c2)O1 [compound 109]
pIC50 (CCNE1-normal SKOV3 cells): 5.90 to 6.60

pIC50 (CDK1-CYCLIN B; Table 11): 7.00 to 7.30
CDK2 Fold selectivity, CDK1 (CDK1-CYCLIN B; CDK2 versus CDK1, Table 12): D (D, >20 and ≤50)
pIC50 (CDK2-CYCLIN E1; Table 11): ≥ 8.00
pIC50 (CDK4-CYCLIN D1; Table 11): < 6.30
CDK2 Fold selectivity, CDK4 (CDK4-CYCLIN D1; CDK2 versus CDK4, Table 12): A (A, ≥500)
pIC50 (CDK6-CYCLIN D3; Table 11): < 6.30
CDK2 Fold selectivity, CDK6 (CDK6-CYCLIN D3; CDK2 versus CDK6, Table 12): B (B, >100 and ≤500)
pIC50 (CDK9-CYCLIN T1; [3]): < 6.30
CDK2 Fold selectivity, CDK9 (CDK9-CYCLIN T1; CDK2 versus CDK9, Table 12): A (A, ≥500)
pIC50 [1]: 8.00 to 8.70
pIC50 [2]: 7.30 to 8.00
SMILES: O=C1NC23CC(COc4cc(cc(C(F)F)n4)Nc4cc([nH]n4)[C@H]4CC[C@H](C4)O1)(C2)C3 [Compound 19, (1^1S,1^3R,Z)-46-(difluoromethyl)-2^1H-5,10-dioxa-3,8-diaza-4(4,2)-pyridina-2(3,5)-pyrazola-7(1,3)-bicyclo[1.1.1]pentana-1(1,3)-cyclopentanacyclodecaphan-9-one]
pIC50 (CCNE1-normal SKOV3 cells): < 5.90

pIC50 (CDK1-CYCLIN B; Table 7): 7.30 to 8.00
pIC50 (CDK2-CYCLIN E1; Table 7): ≥ 8.00
pIC50 (CDK4-CYCLIN D1; Table 7): 7.00 to 7.30
pIC50 (CDK6-CYCLIN D3; Table 7): 7.30 to 8.00
pIC50 (CDK9-CYCLIN T1; [4]): 6.30 to 7.00
pIC50 [1]: 8.00 to 8.70
pIC50 [2]: 7.30 to 8.00
SMILES: O=C1NCCCCOc2cncc(c2)Nc2cc(n[nH]2)[C@H]2CC[C@H](C2)O1 [compound 104]
pIC50 (CCNE1-normal SKOV3 cells): < 5.90

pIC50 (CDK1-CYCLIN B; Table 7): 7.00 to 7.30
CDK2 fold selectivity over CDK1 (CDK1-CYCLIN B; CDK2 versus CDK1, Table 8): E (E, <20)
pIC50 (CDK2-CYCLIN E1; Table 7): ≥ 8.00
pIC50 (CDK4-CYCLIN D1; Table 7): < 6.30
CDK2 Fold Sensitivity, CDK4 (CDK4-CYCLIN D1; CDK2 versus CDK4, Table 8): B (B, >100 and ≤500)
pIC50 (CDK6-CYCLIN D3; Table 7): < 6.30
CDK2 Fold Sensitivity, CDK6 (CDK6-CYCLIN D3; CDK2 versus CDK6, Table 8): B (B, >100 and ≤500)
pIC50 (CDK9-CYCLIN T1; [4]): < 6.30
CDK2 Fold Sensitivity, CDK9 (CDK9-CYCLIN T1; CDK2 versus CDK9, Table 8): B (B, >100 and ≤500)
pIC50 [1]: 7.30 to 8.00
pIC50 [2]: 7.30 to 8.00
SMILES: O=C1NCCCCOc2cc(cc(C(F)F)n2)Nc2cc([nH]n2)[C@H]2CC[C@H](C2)O1 [Compound 16, (1^1S,1^3R,Z)-46-(difluoromethyl)-2^1H-5,12-dioxa-3,10-diaza-4(4,2)-pyridina-2(5,3)-pyrazola-1(1,3)-cyclopentanacyclododecaphan-11-one]
pIC50 (CCNE1-normal SKOV3 cells): < 5.90
